This note sets out measurements from ChEMBL document CHEMBL5058564, “EUbOPEN Chemogenomics Library 2 (Incucyte)” (2022).

Common to all, as to type: toxicity, cell-based
In one data set the test system is U2OS. Put plainly: Incucyte cell viability with U2OS. The following applies: human, 10 µM, compound concentration 10 uM.
The subject of a further data set is HEK-293T. Put plainly: Incucyte cell viability with HEK293T. The following applies: human, 10 µM, compound concentration 10 uM.
The next data set deals with Fibroblast. Put plainly: Incucyte cell viability with human fibroblast. The following applies: 10 µM, compound concentration 10 uM.
The mark [1] stands for this setting: 0 h, replicate number 1, timepoint 0 hours.
The mark [2] stands for this setting: 6 h, replicate number 1, timepoint 6 hours.
[3] abbreviates: 6 h, replicate number 2, timepoint 6 hours.
Where [4] appears, read: 12 h, replicate number 1, timepoint 12 hours.
Where [5] appears, read: 12 h, replicate number 2, timepoint 12 hours.
Where [6] appears, read: 18 h, replicate number 1, timepoint 18 hours.
[7] abbreviates: 18 h, replicate number 2, timepoint 18 hours.
[8] abbreviates: 24 h, replicate number 1, timepoint 24 hours.
Where [9] appears, read: 24 h, replicate number 2, timepoint 24 hours.
[10] abbreviates: 0 h, replicate number 2, timepoint 0 hours.

Values joined by “and” are separate entries in the source; they are usually repeats but may differ in a detail not shown here. Identical values can stand only once.
Also: unitless GR value; below 1 slowed growth and below 0 cell loss.

Consider `CCOC(=O)Nc1cc(-c2ccc(C)c(NS(C)(=O)=O)c2)nn2c(C)nnc12`, for which the “Growth Rate” value in the data set with U2OS (setting [1]) is listed as 0.25; with U2OS (setting [2]), 0.15; in the data set on U2OS (setting [3]), 0.59; in the data set on U2OS (setting [4]) it was 0.56; in the data set on U2OS (setting [5]) it was 0.95; in the data set with U2OS (setting [6]), 0.82. Further, the “Growth Rate” value in the data set with U2OS (setting [7]) is recorded as 0.95; in the data set with U2OS (setting [8]), 0.83; with U2OS (setting [9]) it was 0.84; with HEK-293T (setting [1]) it was 0.65; in the data set with HEK-293T (setting [10]), 0.66; with HEK-293T (setting [4]), 0.95. The “Growth Rate” value with HEK-293T (setting [6]) was 0.79; with HEK-293T (setting [7]) it was 0.98; in the data set on HEK-293T (setting [8]) it was 0.46; in the data set on HEK-293T (setting [9]) it was 0.76; with Fibroblast (setting [10]) it was 0.22; in the data set with Fibroblast (setting [2]) it was -0.16. Also, the “Growth Rate” value in the data set on Fibroblast (setting [9]) is 0.95.

Regarding `CC(C)CCC[C@@H](C)[C@H]1CC[C@H]2[C@@H]3[C@H](O)C=C4C[C@@H](O)CC[C@]4(C)[C@H]3CC[C@]12C`, the “Growth Rate” value in the data set with U2OS (setting [10]) is 0.03; with U2OS (setting [2]), 0.98; with HEK-293T (setting [1]), 0.95; with HEK-293T (setting [10]), -0.21; in the data set on HEK-293T (setting [6]), 0.84; with HEK-293T (setting [8]), 0.85. Moreover, the “Growth Rate” value is 0.96 in the data set with HEK-293T (setting [9]); -0.09 in the data set on Fibroblast (setting [10]); 0.24 in the data set on Fibroblast (setting [2]); 0.56 in the data set with Fibroblast (setting [3]); 0.24 in the data set on Fibroblast (setting [4]); 0.91 with Fibroblast (setting [5]). Besides, the “Growth Rate” value amounted to 0.52 in the data set with Fibroblast (setting [6]), 0.84 with Fibroblast (setting [7]), 0.5 in the data set with Fibroblast (setting [8]) and 0.43 in the data set with Fibroblast (setting [9]).

Regarding `O=c1c2cccn2c2ccccc2n1CCCN1CCC(c2ccc(Cl)cc2)CC1`, the “Growth Rate” value in the data set on U2OS (setting [10]) is -1; in the data set on U2OS (setting [5]), 0.89; with U2OS (setting [7]) it was 0.89; with U2OS (setting [9]) it was 0.8; with HEK-293T (setting [3]) it was 0.34; in the data set with HEK-293T (setting [4]) it was 0.61. Also, the “Growth Rate” value in the data set on HEK-293T (setting [5]) was 0.39; in the data set on HEK-293T (setting [6]) it was 0.56; in the data set on HEK-293T (setting [7]), 0.55; in the data set on HEK-293T (setting [8]), 0.76; with HEK-293T (setting [9]), 0.9; in the data set on Fibroblast (setting [2]), -0.55. The “Growth Rate” value in the data set on Fibroblast (setting [3]) was -0.88; in the data set on Fibroblast (setting [4]), -0.52; in the data set on Fibroblast (setting [5]), -0.58; in the data set with Fibroblast (setting [6]) it was -0.55; in the data set on Fibroblast (setting [7]) it was -0.28; with Fibroblast (setting [8]), -0.3. In addition, the “Growth Rate” value in the data set on Fibroblast (setting [9]) is listed as -0.26.

Regarding `COc1cccc2c1c(NS(=O)(=O)c1ccc(Cl)s1)nn2Cc1cccc(CNC(=O)C(C)(C)O)c1`, the “Growth Rate” value with U2OS (setting [1]) was -0.39; in the data set on U2OS (setting [10]), -1; in the data set on U2OS (setting [4]), 0.99; in the data set on U2OS (setting [5]) it was 0.98; in the data set with U2OS (setting [7]) it was 0.83; in the data set on U2OS (setting [9]), 0.89. Besides, the “Growth Rate” value with HEK-293T (setting [1]) is recorded as 0.52; in the data set with HEK-293T (setting [3]), 0.95; in the data set with HEK-293T (setting [4]) it was 0.98; with HEK-293T (setting [5]) it was 0.47; with HEK-293T (setting [8]) it was 0.38; in the data set with Fibroblast (setting [10]) it was 0.35. The “Growth Rate” value with Fibroblast (setting [2]) is 0.17; in the data set with Fibroblast (setting [3]) it was 0.5; in the data set on Fibroblast (setting [4]), 0.41; in the data set with Fibroblast (setting [6]) it was 0.35; with Fibroblast (setting [8]), 0.53.

For the compound `COc1ccc2cc(S(=O)(=O)N[C@H](CC(=O)N[C@H](Cc3ccc(CN4[C@H](C)CCC[C@@H]4C)cc3)C(=O)N(C)C(C)C)c3ccc4c(c3)OCO4)ccc2c1.Cl`, the “Growth Rate” value was -0.35 with U2OS (setting [10]); 0.84 with U2OS (setting [2]); 0.63 in the data set with U2OS (setting [4]); 0.61 in the data set with U2OS (setting [5]); 0.67 with U2OS (setting [6]); 0.57 in the data set on U2OS (setting [7]). The “Growth Rate” value in the data set with U2OS (setting [8]) is 0.69; in the data set with U2OS (setting [9]) it was 0.53; with HEK-293T (setting [2]), -0.08; in the data set on HEK-293T (setting [4]) it was 0.01; in the data set with HEK-293T (setting [5]) it was 0.35; in the data set on HEK-293T (setting [6]), 0.02. Also, the “Growth Rate” value is reported as 0.41 in the data set with HEK-293T (setting [7]); 0.01 in the data set with HEK-293T (setting [8]); 0.42 with HEK-293T (setting [9]); -0.08 with Fibroblast (setting [10]); -0.65 in the data set on Fibroblast (setting [2]); -0.35 in the data set with Fibroblast (setting [3]). Besides, the “Growth Rate” value in the data set with Fibroblast (setting [4]) is listed as -0.6; with Fibroblast (setting [5]), -0.1; with Fibroblast (setting [6]), -0.65; in the data set on Fibroblast (setting [7]) it was -0.15; with Fibroblast (setting [8]) it was -0.57; in the data set with Fibroblast (setting [9]) it was -0.02.

`CC(C)Cc1ccc([C@@H](C)C(=O)NS(C)(=O)=O)cc1` [REPARIXIN]: the “Growth Rate” value in the data set with U2OS (setting [1]) is given as -0.7; in the data set with U2OS (setting [10]) it was -1; in the data set with U2OS (setting [3]), 0.83; in the data set with U2OS (setting [5]) it was 0.88; in the data set with U2OS (setting [7]), 0.86; in the data set on U2OS (setting [9]), 0.93. Also, the “Growth Rate” value with HEK-293T (setting [10]) is recorded as 0.48; in the data set with HEK-293T (setting [4]) it was 0.78; with HEK-293T (setting [6]), 0.7; with HEK-293T (setting [7]), 0.83; in the data set with HEK-293T (setting [8]) it was 0.82; in the data set on Fibroblast (setting [2]) it was 0.51. For the same compound, the “Growth Rate” value in the data set with Fibroblast (setting [3]) is recorded as -0.08; with Fibroblast (setting [4]), 0.63; in the data set on Fibroblast (setting [5]), 0.66; in the data set on Fibroblast (setting [6]) it was 0.6; with Fibroblast (setting [7]), 0.65; in the data set on Fibroblast (setting [8]) it was 0.06. The “Growth Rate” value in the data set on Fibroblast (setting [9]) came to 0.95.

For `CS(=O)(=O)c1ccc(C(=O)Nc2ccc(Cl)c(-c3ccccn3)c2)c(Cl)c1` [VISMODEGIB], the “Growth Rate” value is -1 with U2OS (setting [10]); 0.94 in the data set with U2OS (setting [2]); 0.8 in the data set on U2OS (setting [3]); 0.78 in the data set on U2OS (setting [5]); 0.84 with U2OS (setting [7]); 0.86 with U2OS (setting [9]). Also, the “Growth Rate” value in the data set on HEK-293T (setting [1]) was found to be 1; in the data set with HEK-293T (setting [10]), 0.86; with HEK-293T (setting [2]), 0.99; with HEK-293T (setting [3]) it was 0.75; in the data set on HEK-293T (setting [4]), 0.8; in the data set on HEK-293T (setting [5]), 0.84. Also, the “Growth Rate” value with HEK-293T (setting [6]) is 0.81; in the data set on HEK-293T (setting [7]), 0.92; in the data set on HEK-293T (setting [8]) it was 0.83; in the data set with Fibroblast (setting [2]), 0.27; with Fibroblast (setting [3]), 0.96; in the data set with Fibroblast (setting [4]), 0.7. Also, the “Growth Rate” value is reported as 0.84 in the data set on Fibroblast (setting [5]); 0.67 with Fibroblast (setting [6]); 0.59 in the data set with Fibroblast (setting [7]); 0.29 in the data set with Fibroblast (setting [8]); 0.73 in the data set on Fibroblast (setting [9]).

Regarding `O=C(O)c1n[nH]c2c1C[C@H]1C[C@@H]21`, the “Growth Rate” value with U2OS (setting [2]) is -0.58; in the data set with U2OS (setting [3]), 0.74; in the data set with U2OS (setting [5]) it was 0.86; in the data set with U2OS (setting [7]), 0.91 and 0.92; in the data set with U2OS (setting [8]), 0.99; in the data set with U2OS (setting [9]) it was 1. Besides, the “Growth Rate” value in the data set on HEK-293T (setting [1]) is 0.7; with HEK-293T (setting [10]) it was 0.85; in the data set with HEK-293T (setting [2]) it was 0.55; with HEK-293T (setting [3]), 0.86 and 0.89; in the data set with HEK-293T (setting [4]) it was 0.71; with HEK-293T (setting [5]), 0.64. Also, the “Growth Rate” value in the data set with HEK-293T (setting [6]) was 0.67; in the data set on HEK-293T (setting [7]), 0.58; with HEK-293T (setting [8]) it was 0.7; in the data set on HEK-293T (setting [9]), 0.58; in the data set on Fibroblast (setting [1]), 0.67; in the data set on Fibroblast (setting [10]), 0.18 and 0.32. For the same compound, the “Growth Rate” value in the data set with Fibroblast (setting [2]) is 0.39 and 0.14; in the data set on Fibroblast (setting [3]), 0.95 and 0.74; with Fibroblast (setting [4]), 0.55 and 0.57; in the data set on Fibroblast (setting [5]), 0.86; with Fibroblast (setting [6]) it was 0.72 and 0.87; in the data set with Fibroblast (setting [7]), 0.89. The “Growth Rate” value with Fibroblast (setting [8]) is 0.63 and 0.53; with Fibroblast (setting [9]), 0.79.

Consider `CC[C@@H](C)Nc1nc(C)nc2c(-c3ccc(OC)nc3C)c(C)nn12` [PEXACERFONT], for which the “Growth Rate” value in the data set with U2OS (setting [10]) was -1; in the data set with U2OS (setting [2]), 1; with U2OS (setting [4]), 0.45; with U2OS (setting [6]), 0.67; with HEK-293T (setting [1]), 0.85; with HEK-293T (setting [10]) it was 0.62. Also, the “Growth Rate” value was 0.9 in the data set with HEK-293T (setting [5]); 0.93 with HEK-293T (setting [6]); 0.84 with HEK-293T (setting [8]); 0.28 in the data set with Fibroblast (setting [10]); -0.25 in the data set with Fibroblast (setting [2]); -0.51 in the data set on Fibroblast (setting [3]). For the same compound, the “Growth Rate” value is listed as -0.18 in the data set on Fibroblast (setting [4]); 0.49 in the data set with Fibroblast (setting [5]); -0.19 with Fibroblast (setting [6]); 0.94 in the data set with Fibroblast (setting [7]); -0.13 in the data set with Fibroblast (setting [8]); 1 with Fibroblast (setting [9]).
